Our source for the Bliss excess values is the supplement of paper PMC11061612.

SMILES strings stand for the structures.

Holding throughout (experiment): Bliss excess, mean over the matrix (fraction); higher = more synergy
Assay [1] relates to AMO-1 (Plasma Cell Myeloma). The procedure, abridged: (§1)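 Cell lines in DMEM/F12 or RPMI with 10% FBS were plated in 1536-well plates, held 24 hours at 37°C, 5% CO2, then given two-drug dose matrices for 72 hours (DMSO typically 0.2%). Viability was read by CellTiter-Glo 2.0 luminescence and scaled as inhibition from 0 (vehicle wells) to 1 (blank wells). Combination Emax is the second-highest inhibition in the matrix; Bliss excess is observed combination effect minus expected EA + EB − EA·EB, EA and EB being single-agent effects.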

For assay [2], the system named is BT-549 (Breast Carcinoma). The procedure, abridged:
as §1

The next assay concerns D-263MG (Glioblastoma). The essentials: as §1
Assay [3] relates to EFM-19 (Breast Carcinoma). The essentials: as §1
The test system of assay [4] is Hs-766T (Pancreatic Carcinoma). The procedure, abridged: as §1
Assay [5] relates to KARPAS-299 (T-Cell Non-Hodgkin's Lymphoma). The essentials: as §1
Assay [6] deals with KYSE-450 (Esophageal Squamous Cell Carcinoma). The procedure, abridged: as §1
The subject of assay [7] is LU-65 (Non-Small Cell Lung Carcinoma). The essentials: as §1
Assay [8] concerns MLMA (Other Blood Carcinomas). The essentials: as §1
Assay [9] relates to NCI-H727 (Other Solid Carcinomas). The essentials:
as §1

For assay [10], the system named is SW13 (Other Solid Carcinomas). The procedure, abridged: as §1
Another assay concerns TGW (Neuroblastoma). The procedure, abridged: as §1
The test system of a further assay is UACC-62 (Melanoma). The procedure, abridged:
as §1

In the case of `C=CCn1c(=O)c2cnc(Nc3ccc(N4CCN(C)CC4)cc3)nc2n1-c1cccc(C(C)(C)O)n1` [AZD1775] + CCc1c2c(nc3ccc(O)cc13)-c1cc3c(c(=O)n1C2)COC(=O)[C@]3(O)CC [SN-38] (first compound max 1 µM, partner max 0.3 µM), the Bliss excess in assay [1] was -0.052; in assay [2], -0.057; with D-263MG (Glioblastoma) it was 0.0132; in assay [3] it was -0.0175; in [4], 0.0017; in assay [5], -0.042. For the same compound, the Bliss excess is 0.0358 in [6]; -0.0127 in [7]; -0.0639 in assay [8]; -0.0018 in assay [9]; 0.0119 in assay [10]; -0.0592 in the assay with TGW (Neuroblastoma). Further, the Bliss excess in the assay on UACC-62 (Melanoma) was -0.0497.
Consider `C=CCn1c(=O)c2cnc(Nc3ccc(N4CCN(C)CC4)cc3)nc2n1-c1cccc(C(C)(C)O)n1` [AZD1775] + Nc1ccn([C@@H]2O[C@H](CO)[C@@H](O)C2(F)F)c(=O)n1 [Gemcitabine] (first compound max 1 µM, partner max 0.3 µM), for which the Bliss excess in assay [1] is 0.157; in assay [2], -0.0069; in the assay with D-263MG (Glioblastoma), 0.0297; in [3], 0.0061; in assay [4], -0.0742; in assay [5] it was 0.0851. Moreover, the Bliss excess in assay [6] was 0.0717; in assay [7], -0.0081; in [8] it was -0.0797; in assay [9], -0.0278; in [10], 0.0385; in the assay on TGW (Neuroblastoma), -0.0355. The Bliss excess in the assay on UACC-62 (Melanoma) is 0.0399.
Consider `CN(CCO)CC[C@H](CSc1ccccc1)Nc1ccc(S(=O)(=O)NC(=O)c2ccc(N3CCC([C@@H](O)c4ccccc4-c4ccc(Cl)cc4)CC3)cc2)cc1S(=O)(=O)C(F)(F)F` [AZD4320] + CS(=O)(=O)CCNCc1ccc(-c2ccc3ncnc(Nc4ccc(OCc5cccc(F)c5)c(Cl)c4)c3c2)o1 [Lapatinib] (first compound max 1 µM, 7x7, partner max 10 µM), for which the Bliss excess in [1] was 0.0695; in [2] it was -0.0188; in the assay on D-263MG (Glioblastoma), -0.0288; in [3], 0.013; in [4], -0.0586; in [5], 0.0265. Also, the Bliss excess in [6] is -0.0459; in [7], -0.0043; in [8] it was 0.014; in [9], 0.0904; in assay [10] it was 0.0051; in the assay with TGW (Neuroblastoma), 0.0959. Moreover, the Bliss excess in the assay with UACC-62 (Melanoma) is -0.0143.
`Cc1c2c(nn1C)CSCc1cc(n(C)n1)CSc1cc(c3ccccc3c1)OCCCc1c(C(=O)O)n(C)c3c-2c(Cl)ccc13` [AZD5991] + CC(=O)O[C@H]1C(=O)[C@@]2(C)[C@H]([C@H](OC(=O)c3ccccc3)[C@]3(O)C[C@H](OC(=O)[C@H](O)[C@@H](NC(=O)c4ccccc4)c4ccccc4)C(C)=C1C3(C)C)[C@]1(OC(C)=O)CO[C@@H]1C[C@@H]2O [Paclitaxel] (first compound max 1 µM, 7x7, partner max 3 µM): the Bliss excess is 0.0096 in [1]; 0.0124 in [2]; 0.206 in the assay on D-263MG (Glioblastoma); 0.0948 in assay [3]; -0.0539 in assay [4]; -0.0693 in assay [5]. For the same compound, the Bliss excess is 0.0363 in assay [6]; -0.0944 in assay [7]; -0.0803 in assay [8]; -0.025 in [9]; 0.0376 in assay [10]; -0.0235 in the assay on TGW (Neuroblastoma). The Bliss excess in the assay with UACC-62 (Melanoma) came to 0.115.
As for `Cc1c2c(nn1C)CSCc1cc(n(C)n1)CSc1cc(c3ccccc3c1)OCCCc1c(C(=O)O)n(C)c3c-2c(Cl)ccc13` [AZD5991] + CS(=O)(=O)CCNCc1ccc(-c2ccc3ncnc(Nc4ccc(OCc5cccc(F)c5)c(Cl)c4)c3c2)o1 [Lapatinib] (first compound max 1 µM, 7x7, partner max 10 µM), the Bliss excess was 0.0149 in [1]; -0.042 in assay [2]; -0.0735 in the assay with D-263MG (Glioblastoma); -0.0035 in assay [3]; -0.0526 in assay [4]; 0.0227 in assay [5]. Further, the Bliss excess was -0.0108 in assay [6]; 0.0232 in assay [7]; -0.0474 in [8]; -0.0013 in assay [9]; 0.0568 in assay [10]; -0.0015 in the assay with TGW (Neuroblastoma). The Bliss excess in the assay with UACC-62 (Melanoma) is -0.0376.
As to `Cc1c2c(nn1C)CSCc1cc(n(C)n1)CSc1cc(c3ccccc3c1)OCCCc1c(C(=O)O)n(C)c3c-2c(Cl)ccc13` [AZD5991] + Nc1ccn([C@@H]2O[C@H](CO)[C@@H](O)C2(F)F)c(=O)n1 [Gemcitabine] (first compound max 1 µM, 7x7, partner max 0.3 µM), the Bliss excess in [1] is 0.0042; in assay [2], 0.0278; with D-263MG (Glioblastoma) it was 0.08; in [3] it was 0.0744; in assay [4] it was -0.0234; in assay [5], -0.0188. For the same compound, the Bliss excess is -0.0267 in [6]; -0.0251 in [7]; -0.0451 in assay [8]; -0.0394 in assay [9]; 0.038 in assay [10]; 0.007 in the assay on TGW (Neuroblastoma). Besides, the Bliss excess with UACC-62 (Melanoma) is -0.0219.
As for `C[C@@H]1COCCN1c1cc(C2([S@](C)(=N)=O)CC2)nc(-c2ccnc3[nH]ccc23)n1` [AZD6738] + C1CC(C1)(C(=O)[O-])C(=O)[O-].N.N.[Pt+2] [Carboplatin] (first compound max 10 µM, 7x7, partner max 10 µM), the Bliss excess is 0.0025 in assay [1]; -0.0453 in assay [2]; -0.0417 in the assay with D-263MG (Glioblastoma); -0.0328 in [3]; -0.0536 in [4]; -0.0261 in assay [5]. Besides, the Bliss excess in assay [6] is -0.0386; in assay [7] it was -0.0954; in [8] it was -0.102; in assay [9] it was -0.0445; in assay [10], -0.0051; in the assay with TGW (Neuroblastoma), -0.0765. The Bliss excess in the assay with UACC-62 (Melanoma) was -0.0289.
As to `C[C@@H]1COCCN1c1cc(C2([S@](C)(=N)=O)CC2)nc(-c2ccnc3[nH]ccc23)n1` [AZD6738] + Nc1ccn([C@@H]2O[C@H](CO)[C@@H](O)C2(F)F)c(=O)n1 [Gemcitabine] (first compound max 10 µM, 7x7, partner max 0.3 µM), the Bliss excess in [1] was 0.0048; in [2], -0.0194; with D-263MG (Glioblastoma) it was 0.102; in assay [3] it was 0.127; in assay [4], -0.0278; in assay [5] it was 0.0607. The Bliss excess was 0.104 in [6]; 0.0191 in assay [7]; -0.0777 in [8]; 0.0121 in assay [9]; 0.0493 in assay [10]; 0.0013 in the assay on TGW (Neuroblastoma). Also, the Bliss excess in the assay on UACC-62 (Melanoma) was found to be 0.0114.
With `C[C@@H](Nc1cc(F)cc(F)c1)c1cc(C(=O)N(C)C)cc2c(=O)cc(N3CCOCC3)oc12` [AZD8186] + C1CN(CCC1(C(=O)N[C@@H](CCO)C2=CC=C(C=C2)Cl)N)C3=NC=NC4=C3C=CN4 [AZD5363] (first compound max 10 µM, 7x7, partner max 10 µM), the Bliss excess in [1] is 0.0309; in [2] it was -0.0011; with D-263MG (Glioblastoma) it was -0.0348; in [3], -0.0075; in assay [4], -0.0078; in [5], 0.0092. Moreover, the Bliss excess is 0.0035 in assay [6]; -0.0629 in assay [7]; -0.0797 in assay [8]; -0.0149 in [9]; 0.0092 in assay [10]; -0.0683 in the assay with TGW (Neuroblastoma). For the same compound, the Bliss excess in the assay on UACC-62 (Melanoma) was -0.0382.
